This is an account of results in US4612372A, “Tylosin derivatives” (Sanraku Incorporated, priority 1984, dated 1986).

A value given as a limit tells only on which side of the number the result lay.

Data set [1] is described as follows: Stability against liver homogenate of mice. It is filed as in vitro ADME, mice (ICB strain). The following applies: for remaining at 1 h: pH 7.2, mouse liver homogenate supernatant, 37° C., contact 60 minutes, read-out: Residual Intact Compound Rate. The procedure: Liver from ICB strain mice was homogenated with a potter's homogenizer (3000 rpm, 10 minutes) together with a 5-fold amount of 0.1M phosphate buffer (pH 7.2). To the supernatant was added 1 ml of a 500 μg/ml (10% methanolic water) of a specimen. After the mixture was reacted at 37° C. for 1 hour, the reaction mixture was heated at 100° C. for 3 minutes. Then, 1 ml of 0.1M phosphate buffer (pH 9.0) was added thereto and extracted with 1 ml of ethyl acetate. The organic layer was subjected to silica gel thin layer chromatograph y (chloroform/methanol/ammonia=15/1.2/0.1). By a chromatographic scanner (283 nm), a formation ratio of the unchanged substance to the hydrolysate was determined and the formation of the hydrolysate was expressed by percentage.

In data set [2] the test system is esterase. Briefly: Hydrolysis by esterase in vivo (particularly in liver).
Data set [3] concerns infectious diseases of mice. Briefly: Experiment of treatment for infectious diseases of mice. It is filed as in vivo.
In data set [4] the test system is resistant bacteria. The settings on record: U.S. Pat. No. 4,205,163; cited from earlier work.
The subject of data set [5] is pathogenic microorganisms. Briefly: Antibacterial activity in general (in words). It is filed as cell-based.
The subject of data set [6] is resistant bacteria. The settings on record: drug-resistant bacteria.

For the compound `CCC1OC(=O)CC(O)C(C)C(OC2OC(C)C(OC3CC(C)(O)C(OC(=O)Cc4ccc(SC)cc4)C(C)O3)C(N(C)C)C2O)C(CC=O)CC(C)C(=O)C=CC(C)=CC1COC1OC(C)C(O)C(OC)C1OC` (stereo not shown) [Compound 2, 4"-O-(4-Methylthiophenylacetyl)tylosin], the remaining at 1 h in data set [1] worked out at 84%. The same measure, in the same setting: the figure for `CCC1OC(=O)CC(O)C(C)C(OC2OC(C)C(OC3CC(C)(O)C(OC(=O)Cc4ccc(C(=O)c5ccccc5)cc4)C(C)O3)C(N(C)C)C2O)C(CC=O)CC(C)C(=O)C=CC(C)=CC1COC1OC(C)C(O)C(OC)C1OC` (stereo not shown) [Compound 4, 4"-O-(4-Benzoylphenylacetyl)tylosin] is 82%; for `CCC1OC(=O)CC(O)C(C)C(OC2OC(C)C(OC3CC(C)(O)C(OC(=O)Cc4ccccc4)C(C)O3)C(N(C)C)C2O)C(CC=O)CC(C)C(=O)C=CC(C)=CC1COC1OC(C)C(O)C(OC)C1OC` (stereo not shown) [Control 3, reference compound] it is less than 95%.

With `CCC1OC(=O)CC(O)C(C)C(OC2OC(C)C(OC3CC(C)(O)C(OC(=O)Cc4ccccc4F)C(C)O3)C(N(C)C)C2O)C(CC=O)CC(C)C(=O)C=CC(C)=CC1COC1OC(C)C(O)C(OC)C1OC` (stereo not shown) [Compound 9, 4"-O-(2-Fluorophenylacetyl)tylosin], the remaining at 1 h in data set [1] was 95%. Consider `CCC1OC(=O)CC(O)C(C)C(OC2OC(C)C(OC3CC(C)(O)C(OC(=O)CSc4ccccc4)C(C)O3)C(N(C)C)C2O)C(CC=O)CC(C)C(=O)C=CC(C)=CC1COC1OC(C)C(O)C(OC)C1OC` (stereo not shown) [Control 2, 4"-O-phenylthioacetyltylosin], for which the remaining at 1 h in data set [1] turned out to be 0%. The “hydrolysis by esterase (in words)” value in data set [2] is reported as “completely hydrolyzed by esterase”. In data set [3], the “result in experiment of treatment for infectious diseases of mice (in words)” value was “merely unsatisfactory results”. The “effectiveness against macrolide-resistant bacteria (in words)” value in data set [4] was “most effective tylosin derivative against macrolide-resistant bacteria”. Further, in data set [5], the “antibacterial activity (in words)” value is given as “high antibacterial activity in vitro”. Consider `CCC1OC(=O)CC(O)C(C)C(OC2OC(C)C(OC3CC(C)(O)C(OC(=O)Cc4ccc(C(C)=O)cc4)C(C)O3)C(N(C)C)C2O)C(CC=O)CC(C)C(=O)C=CC(C)=CC1COC1OC(C)C(O)C(OC)C1OC` (stereo not shown) [Compound 8, 4"-O-(4-Acetylphenylacetyl)tylosin], for which the remaining at 1 h in data set [1] was less than 95%. On to `CCC1OC(=O)CC(O)C(C)C(OC2OC(C)C(OC3CC(C)(O)C(OC(=O)Cc4ccccc4)C(C)O3)C(N(C)C)C2O)C(CC=O)CC(C)C(=O)C=CC(C)=CC1COC1OC(C)C(O)C(OC)C1OC` (stereo not shown) [Control 1, reference compound], for which the “stability against liver homogenate (in words)” value in data set [1] (liver homogenate of mice) is reported as “good result”. Further, in data set [6], the “antibacterial activity against resistant bacteria (in words)” value is listed as “poor in antibacterial activity against resistant bacteria”.

Regarding `CCC1OC(=O)CC(O)C(C)C(OC2OC(C)C(OC3CC(C)(O)C(OC(=O)Cc4ccc(S(C)(=O)=O)cc4)C(C)O3)C(N(C)C)C2O)C(CC=O)CC(C)C(=O)C=CC(C)=CC1COC1OC(C)C(O)C(OC)C1OC` (stereo not shown) [Compound 1, 4"-O-(4-Methylsulfonylphenylacetyl)tylosin], in data set [1], the remaining at 1 h came to 89%. The same measure, in the same setting: the figure for `CCC1OC(=O)CC(OC(C)=O)C(C)C(OC2OC(C)C(OC3CC(C)(O)C(OC(=O)Cc4ccc(C(C)=O)cc4)C(C)O3)C(N(C)C)C2O)C(CC=O)CC(C)C(=O)C=CC(C)=CC1COC1OC(C)C(O)C(OC)C1OC` (stereo not shown) [Compound 10, 3-O-acetyl-4"-O-(4-acetylphenylacetyl)tylosin] is less than 95%. Regarding `CCC1OC(=O)CC(O)C(C)C(OC2OC(C)C(OC3CC(C)(O)C(OS(=O)(=O)Cc4ccc(F)cc4)C(C)O3)C(N(C)C)C2O)C(CC=O)CC(C)C(=O)C=CC(C)=CC1COC1OC(C)C(O)C(OC)C1OC` (stereo not shown) [Compound 7, 4"-O-(4-Fluorobenzylsulfonyl)tylosin], in data set [1], the remaining at 1 h is less than 95%. On to `CCC1OC(=O)CC(O)C(C)C(OC2OC(C)C(OC3CC(C)(O)C(OS(=O)(=O)Cc4ccccc4)C(C)O3)C(N(C)C)C2O)C(CC=O)CC(C)C(=O)C=CC(C)=CC1COC1OC(C)C(O)C(OC)C1OC` (stereo not shown) [Control 4, reference compound], for which, in data set [1], the remaining at 1 h was 0%. On the same count and under the same terms, the figure for `CCC1OC(=O)CC(O)C(C)C(OC2OC(C)C(OC3CC(C)(O)C(OC(=O)Cc4ccc(F)cc4)C(C)O3)C(N(C)C)C2O)C(CC=O)CC(C)C(=O)C=CC(C)=CC1COC1OC(C)C(O)C(OC)C1OC` (stereo not shown) [Compound 6, 4"-O-(4-Fluorophenylacetyl)tylosin] is 95%. The same measure, in the same setting: the figure for `CCC1OC(=O)CC(O)C(C)C(OC2OC(C)C(OC3CC(C)(O)C(OC(=O)Cc4ccc(OC)cc4)C(C)O3)C(N(C)C)C2O)C(CC=O)CC(C)C(=O)C=CC(C)=CC1COC1OC(C)C(O)C(OC)C1OC` (stereo not shown) [Compound 5, 4"-O-(4-Methoxyphenylacetyl)tylosin] is 94%; for `CCC1OC(=O)CC(O)C(C)C(OC2OC(C)C(OC3CC(C)(O)C(OC(=O)Cc4ccc(C(C)=O)cc4)C(C)O3)C(N(C)C)C2O)C(CC=O)CC(C)C(=O)C=CC(C)=CC1C` (stereo not shown) [Compound 3] it is 95%.
